Assay results: patent US5561131A, “Defaunation method” (Mallinckrodt Veterinary, Inc., priority 1991, dated 1996)

test system: rumen ciliate protozoa; assay: In vitro activity of defaunation compounds against rumen ciliate protozoa; type: cell-based; conditions: 39° C., anaerobic, 3 hours, tested at 50, 150, 250 and 500 ppm
Procedure: Compounds of Table 1 were tested for their toxicity against rumen ciliate protozoa by firstly isolating protozoa from rumen liquor collected from faunated animals. The rumen liquor was then centrifuged at 500 g for five minutes and the supernatant discarded. The protozoal-rich sediment was then reconstituted in McDougal's artificial saliva. Residual bacteria were suppressed by using a combination of two antibiotics at low concentration. Nitrogen and energy substrate was optimized for the protozoal preparation. At all times the protozoal preparation was maintained at 39° C. and kept anaerobic.
Sixty milligrams of each the compounds of Table 1 were dissolved in 1.2 ml of dimethyl sulphoxide and dispersed in triplicate to achieve a final concentration of 50, 150, 250 and 500 ppm. Ten milliliters of protozoal preparation was then added to each tube. After every second compound, control tubes were included which contained everything except for compound. The tubes, to which a 5 ml glass syringe was attached, were then incubated for 3 hours in a water bath at 39° C. The production of gas causes the syringe plunger to be displaced.
At the end of the incubation period, the volume of gas produced was recorded and the viability of the protozoa assessed visually using a microscope. The toxicity of the compounds to protozoa was assessed from both the reduction in gas produced relative to the control and by direct observation of the protozoa for movement of cilia.

Row | Structure (SMILES) | Conc Required to Kill all Protozoa [ppm]
1 | Clc1nc(Cl)nc(Nc2ccccc2)n1 [Compound 1] | 250
2 | COc1ccc(Nc2nc(Cl)nc(Cl)n2)c([N+](=O)[O-])c1 [Compound 31] | 250
3 | Clc1ccc(Nc2nc(Cl)nc(Cl)n2)cc1 [Compound 2] | 150
4 | Clc1nc(Cl)nc(Nc2ccc(Br)cc2)n1 [Compound 3] | 250
5 | Clc1nc(Cl)nc(Nc2cc(Cl)c(Cl)c(Cl)c2)n1 [Compound 24] | 150
6 | COc1cccc(Nc2nc(Cl)nc(Cl)n2)c1 [Compound 23] | 150
7 | Cc1ccccc1Nc1nc(Cl)nc(Cl)n1 [Compound 8] | 250
8 | Cc1ccc(Nc2nc(Cl)nc(Cl)n2)cc1[N+](=O)[O-] [Compound 26] | 250
9 | CN(c1ccccc1)c1nc(Cl)nc(Cl)n1 [Compound 14] | 250
10 | Cc1cc(O)c(C(C)(C)C)cc1Nc1nc(Cl)nc(Cl)n1 [Compound 34] | 250
11 | Oc1ccc(Nc2nc(Cl)nc(Cl)n2)cc1 [Compound 4] | 250
12 | Clc1nc(Cl)nc(Nc2ccc(-c3ccccc3)cc2)n1 [Compound 25] | 150

test system: rumen bacteria; assay: In vitro bacterial gas inhibition; type: cell-based; conditions: at the concentration known to kill protozoa
Procedure: Compounds of Table 1 were also tested for toxicity bacteria. This involved removing protozoa from rumen liquor by centrifugation at 2,000 g for 5 minutes and collecting the bacterial rich supernatant. Nitrogen and energy substrate was added to the bacterial preparation which was then dispensed in triplicate 10 ml volumes over the same range of compound concentrations (50, 150, 250 and 500 ppm.) referred to in Example 2. Control tubes were placed after every second compound to enable the inhibition of gas resulting from the compound to be assessed. […] It can be seen that these compounds are selective in their mode of action, in that they are more toxic to protozoa than bacteria.

Row | Structure (SMILES) | Bact. Gas Inhibition at the conc. required to kill protozoa
13 | Clc1nc(Cl)nc(Nc2ccccc2)n1 [Compound 1] | 43
14 | COc1ccc(Nc2nc(Cl)nc(Cl)n2)c([N+](=O)[O-])c1 [Compound 31] | 39
15 | Clc1ccc(Nc2nc(Cl)nc(Cl)n2)cc1 [Compound 2] | 38
16 | Clc1nc(Cl)nc(Nc2ccc(Br)cc2)n1 [Compound 3] | 45
17 | Clc1nc(Cl)nc(Nc2cc(Cl)c(Cl)c(Cl)c2)n1 [Compound 24] | 67
18 | COc1cccc(Nc2nc(Cl)nc(Cl)n2)c1 [Compound 23] | 50
19 | Cc1ccccc1Nc1nc(Cl)nc(Cl)n1 [Compound 8] | 43
20 | Cc1ccc(Nc2nc(Cl)nc(Cl)n2)cc1[N+](=O)[O-] [Compound 26] | 47
21 | CN(c1ccccc1)c1nc(Cl)nc(Cl)n1 [Compound 14] | 38
22 | Cc1cc(O)c(C(C)(C)C)cc1Nc1nc(Cl)nc(Cl)n1 [Compound 34] | 81
23 | Oc1ccc(Nc2nc(Cl)nc(Cl)n2)cc1 [Compound 4] | 43
24 | Clc1nc(Cl)nc(Nc2ccc(-c3ccccc3)cc2)n1 [Compound 25] | 53

test system: mice; assay: Mouse safety assessment; type: in vivo; conditions: oral gavage, 830, 415 and 217 mg/kg, observed for 2 days
Procedure: Compounds of Table 1 chosen for testing in sheep were first tested in mice for signs of toxicity. Because sheep are approximately 5 times more sensitive than mice to compounds dosed orally, the dose rates applied to mice were 5 times greater than the target dose rate of 500 ppm. in rumen liquor (83 mg/kg live weight) used for sheep. Each compound was screened at three different dose levels, high (830 mg/kg), medium (415 mg/kg) and low (217 mg/kg).
252 mg of compound was used for dilution into a high medium and low dose rate. 252 mg of compound was mixed with 3 ml of G1284 solution (4% w/v ethoxylated castor oil and 0.05% w/v simethicone), to form the high dose composition. The medium dose composition was formed by diluting 1.5 ml of the high dose with 1.5 ml of G1284 solution. The low dose composition was formed by diluting 1.5 ml of the medium dose with 1.5 ml of G1284 solution. Before the high dose could be diluted it was first manually ball milled in an effort to produce a fine suspension of the compound.
All mice were weighed before dosing to calculate the appropriate dose rate. The calculation for dose rate was: [formula]
Each mouse was dosed using the Gavage method. With this method the mouse is dosed orally by way of an angled hypodermic needle (18 g) with a smooth spherical end. It is gently placed down the esophagus. All care must be taken not to force the needle and injure the esophagus or dose into the lungs.
Observations were made at 10, 30, 60 and 120 minutes after dosing, then every 1 or 2 hours for the first 6 hours.
Mice were usually observed for 2 days.
Typically, few compounds fell within the poor classification. The majority of compounds tested were either in the fair or good classification.

Row | Structure (SMILES) | Mouse Safety Assessment
25 | Clc1ccc(Nc2nc(Cl)nc(Cl)n2)cc1 [Compound 2] | Poor (death at 840 mg/kg)
26 | Clc1nc(Cl)nc(Nc2cc(Cl)c(Cl)c(Cl)c2)n1 [Compound 24] | Good
27 | COc1cccc(Nc2nc(Cl)nc(Cl)n2)c1 [Compound 23] | Fair (>2 mice sick)
28 | Cc1ccccc1Nc1nc(Cl)nc(Cl)n1 [Compound 8] | Good

test system: rumen ciliate protozoa; assay: Protozoal reduction in sheep; type: in vivo; design: concentration or dose not given beside the values; conditions: one week after dosing, relative to predosing numbers
Procedure: Defaunation compositions were prepared according to the method of Example 1.
Prior to dosing of the compound, a sample of rumen liquor (200 ml) was withdrawn to establish basal numbers of protozoa.
The sample was collected using a stomach tube, inserted into the rumen via a rumen cannula (fistulated animals) or per esophagus (intact animals). After straining the sample was well mixed using a magnetic stirrer and a 0.5 ml sample was withdrawn and added to 49.5 ml of a crystal violet stain. Protozoa were counted using a microscope and a Hawksley counting chamber.
One week after administering the compound, another rumen liquor sample was collected (as described above) and examined for the presence of protozoa. Where rumen ciliate protozoa were undetectable, a reduction or inhibition value of 100% was recorded. In general, most compounds expressed a strong inhibitory effect on protozoal populations.

Row | Structure (SMILES) | Protozoal Reduction [%]
29 | Clc1ccc(Nc2nc(Cl)nc(Cl)n2)cc1 [Compound 2] | 100
30 | Clc1nc(Cl)nc(Nc2ccc(Br)cc2)n1 [Compound 3] | 100
31 | Clc1nc(Cl)nc(Nc2cc(Cl)c(Cl)c(Cl)c2)n1 [Compound 24] | 100
32 | COc1cccc(Nc2nc(Cl)nc(Cl)n2)c1 [Compound 23] | 79
33 | Cc1ccccc1Nc1nc(Cl)nc(Cl)n1 [Compound 8] | 96
34 | Oc1ccc(Nc2nc(Cl)nc(Cl)n2)cc1 [Compound 4] | 100

test system: rumen bacteria; assay: Bacterial viability in sheep after administering defaunation compounds; type: in vivo; conditions: gas production one week after dosing vs pre-dosing
Procedure: In order to establish what effect the compounds had on the viability of rumen bacteria, a sample of rumen liquor was collected prior to dosing of the compound. The sample was withdrawn under vacuum using a pre-warmed tube inserted into the rumen through a rumen cannula. The sample was collected in a pre-warmed (39° C.) flask, gassed with carbon dioxide and covered. Two-pre-warmed 30 ml centrifuge tubes were then filled with well mixed rumen liquor and centrifuged at 2000 rpm for 5 minutes. Half the volume of each tube was then poured into another pre-warmed tube without disturbing the sediment. Three lots of 10 ml of this rumen liquor were then pipetted into 15 ml tubes which contained 10 μL of urea solution (40% w/v and 300 μL of glucose solution (50% w/v). The urea and glucose acted as substrate for the bacteria. The tubes were then gassed with carbon dioxide, stoppered and placed in a water bath at 39° C. After 10 minutes a 5 ml glass syringe was secured into the stoppers (through which a hypodermic needle had been inserted) and the gas collected for five hours and recorded.
This bacterial viability measure was then repeated one week after dosing with each of the compounds referred to in Table 1. Defaunation compositions were prepared according to the method of Example 1. The amount of gas produced was then compared with the pre-dosing level. The criterion for classifying post-dosing bacterial viability is shown below:
Poor--reduction in post-dosing gas production relative to pre-dosing levels.
OK--post-dosing gas production the same as pre-dosing levels.
Good--increase in post-dosing gas production relative to pre-dosing levels.

Row | Structure (SMILES) | Bacterial Viability
35 | Clc1ccc(Nc2nc(Cl)nc(Cl)n2)cc1 [Compound 2] | Good
36 | Clc1nc(Cl)nc(Nc2ccc(Br)cc2)n1 [Compound 3] | Good
37 | Clc1nc(Cl)nc(Nc2cc(Cl)c(Cl)c(Cl)c2)n1 [Compound 24] | Okay
38 | COc1cccc(Nc2nc(Cl)nc(Cl)n2)c1 [Compound 23] | Good
39 | Cc1ccccc1Nc1nc(Cl)nc(Cl)n1 [Compound 8] | Okay
40 | Oc1ccc(Nc2nc(Cl)nc(Cl)n2)cc1 [Compound 4] | Poor

test system: not listed separately; assay: Effect of defaunation compounds on feed intake of sheep; type: in vivo; conditions: after dosing vs pre-dosing intake
Procedure: Sheep were allowed a minimum of three weeks to adapt to their ration of 900 g of oaten chaff and 100 g of Lucerne chaff. The pre-dosing level of intake for each animal was established from the mean of five days intake immediately prior to dosing. Any effects of administering the compound on feed intake was then determined by measuring the level of feed intake after dosing.
The criteria of classifying the effect on food intake are shown below.
Poor--greater than 50% reduction in feed intake during the first week after dosing.
Fair--greater than 50% reduction in feed intake on the day following dosing but less then 50% reduction one week after dosing.
OK--transient drop in feed intake which is less than 50% on the day after dosing.
Good--No reduction in feed intake following dosing.

Row | Structure (SMILES) | Feed Intake
41 | Clc1ccc(Nc2nc(Cl)nc(Cl)n2)cc1 [Compound 2] | Fair
42 | Clc1nc(Cl)nc(Nc2ccc(Br)cc2)n1 [Compound 3] | Good
43 | Clc1nc(Cl)nc(Nc2cc(Cl)c(Cl)c(Cl)c2)n1 [Compound 24] | Good
44 | COc1cccc(Nc2nc(Cl)nc(Cl)n2)c1 [Compound 23] | Good
45 | Cc1ccccc1Nc1nc(Cl)nc(Cl)n1 [Compound 8] | Okay (transient drop, less than 50% at day 2)
46 | Oc1ccc(Nc2nc(Cl)nc(Cl)n2)cc1 [Compound 4] | Poor (greater than 50% reduction between day 2 to day 8)
